In patent US7947739B2, “Tranexamic acid formulations” (Ferring B.V., priority 2004, dated 2011):
Where two headings read alike, the source gives them in different places.

Tests used:
[1] = system: heavy menstrual bleeding; conditions: cited from earlier work
[2] = Example 6: compartmental pharmacokinetic analysis; format: in vivo; conditions: female, human, plasma, oral, 1.3 g; 295 mL/min×0.449; read-out: systemic clearance (CL)
Procedure: Compartmental analysis was performed on tranexamic acid data following single and multiple oral administrations of the modified release (MR) tablet formulation. Multiple compartmental models were constructed and their ability to fit plasma concentrations of tranexamic acid were evaluated using a standard two-stage (STS) approach with ADAPT-II (maximum likelihood analysis). The discrimination process was performed by computing the Akaike Information Criterion Test (AIC), the minimum value of the objective function (OBJ) and by looking at pertinent graphical representations of goodness of fit (e.g. fitted and observed concentrations versus time).
The final analysis was performed using an iterative two-stage approach with the IT2S® software. This software uses a population methodology which allows one to provide robust PK parameter estimates on an individual subject and population basis. All relevant pharmacokinetic parameters were calculated and reported. Concentrations were modeled using a weighting procedure of Wj=1/Sj^2 where the variance σj^2 was calculated for each observation using the equation σj^2=(a+b*Yj)^2 where a and b are the intercept and slope of each variance model. […] The analysis included the quantitative estimation of population PK parameters and interindividual variability of tranexamic acid in plasma.

[3] = Published pharmacokinetics of tranexamic acid (Pilbrant et al.; Cyklokapron NDA); format: in vivo; conditions: human, serum, single 1.3 g oral dose, fasting, approx. 65% of 2 g dose published data
Procedure: By comparison, the in vivo absorption profile observed with the European immediate-release formulation is slow and very gradual over 3 hours. Specifically, tranexamic acid serum concentrations are 9, 41, 73, 88 percent (with food), and 22, 63, 85, and 98 percent (fasting) of maximal absorption at 0.5, 1, 1.5 and 2 hours after a 2 g oral dose, respectively.
Tranexamic acid is minimally bound (approximately 3%) to plasma proteins (mainly plasminogen) at “typical” therapeutic plasma concentrations of approximately 5-15 mg/L. The main route of elimination of tranexamic acid is renal glomerular filtration. After oral administration of tranexamic acid (250 or 500 mg) to healthy adults, between 40-70% of the administered dose is excreted unchanged in the urine within 24 hours. After IV administration (1 g) 30% of the dose is excreted unchanged in the urine within one hour, 45-55% within 2-3 hours and 90% within 24 hours.
For this reason, the concentration-time profile of tranexamic acid was estimated by simulating the data over 36 hours, after oral administration of a 1.3 g dose under fasting conditions, using NONMEM. Based on the simulation results, it would be appropriate to collect blood samples until 36 hours in order to characterize the AUC, Cmax, tmax, t½ and F.

[4] = system: women with menorrhagia; experiment: Example 9: 6-cycle study, Menorrhagia Instrument measures, responders, sanitary products, large stains; format: in vivo, human
[5] = system: women with menorrhagia; experiment: Example 8: 3-cycle placebo-controlled study, menstrual blood loss (MBL) by alkaline hematin test, also stratified by fibroids; format: in vivo, human; conditions: 3 cycles
[6] = system: women with menorrhagia; experiment: Example 9: 6-cycle placebo-controlled study, menstrual blood loss (MBL) by alkaline hematin test; format: in vivo, human; conditions: 3.9 g/day
[7] = system: women with menorrhagia; experiment: Example 8: 3-cycle study, Menorrhagia Instrument measures (MIQ Q1-Q6), responders, sanitary products, large stains; format: in vivo, human
[8] = Example 6: single dose followed by multiple doses study, noncompartmental plasma pharmacokinetics, linearity, steady state; format: in vivo, human; conditions: 1.3 g every 8 hours
Procedure: After an overnight fast, subjects received a single oral dose of tranexamic acid (1.3 g) on Day 1. Blood samples were taken before dosing and up to 36 hours post-dose. Subjects received another single oral dose of tranexamic acid (1.3 g) on the evening of Day 2, and 3 times a day (every 8 hours) starting on the morning of Day 3 until the last dose on the morning of Day 7. Blood samples were taken before the 6th, 9th, 12th and 15th dose (the last dose) for the determination of Cmin, and up to 8 hours after the last dose, for the determination of drug concentration at steady-state. Subjects were housed from at least 10 hours before the 1st dose on Day 1 until after the 8-hour blood draw following the 15th dose (on Day 7). […]
Calculations for plasma tranexamic acid were calculated by noncompartmental methods using the following pharmacokinetic parameters in Tables 15 and 16:
Descriptive statistics including arithmetic means, standard deviations and coefficients of variation were calculated on the individual concentration and pharmacokinetic data. Additionally, geometric means were calculated for the parameters AUC0-t, AUCinf, and Cmax for Day 1 and AUCτ, Cmax and Cmin for Day 7. […]
The ratio of LSM was calculated using the exponentiation of the Day LSM from the analysis on the In-transformed response. The ratio was expressed as a percentage relative to AUCinf (Day 1). […]

[9] = cited from earlier work; for dose excreted unchanged in the urine: IV 1 g
[10] = 3.9 g/day compared with placebo

For `NC[C@H]1CC[C@H](C(=O)O)CC1` [tranexamic acid, trans-4-(aminomethyl)cyclohexanecarboxylic acid], the “women satisfied with the treatment” value ([1]; Winkler open label uncontrolled usage study, 849 patients) is given as 80%, the “reduction of heavy menstrual bleeding” value ([1]; research from European countries) is given as 40-50% and the clearance [2] is given as 123 mL/min. For the same compound, the AUC(0-t) ([3]; read-out: expected mean AUC0-6) was roughly 40000 ng·h/mL, the Cmax ([3]; read-out: expected mean Cmax) was roughly 10000 ng/mL and the “LWH (MI measure #2)” value [4, 10] was “significantly reduced”. For the same compound, the “subjects' assessments of MBL (MI measure #1)” value [4, 10] was “significantly reduced”, the “mean LPA score, change from baseline” value ([4]; 6-cycle study) was “significant treatment-related reductions” and the “mean LSLA score, change from baseline” value ([4]; 6-cycle study) was “significant treatment-related reductions”. The “mean reduction in MBL from baseline” value ([5]; 1.95 g/day) was 46.5 mL, the “percent MBL reduction compared with baseline” value (shortened to “percent MBL reduction”) ([5]; 1.95 g/day) was 26.1% and the “mean reduction in MBL from baseline” value ([5]; 3.9 g/day) was 65.3 mL. For the same compound, the “percent MBL reduction” value ([5]; 3.9 g/day) was 38.6%, the “mean reduction in MBL from baseline” value ([6]; […], 6-cycle study) was 69.6 mL and the “percent MBL reduction” value ([6]; […], 6-cycle study) was 40.4%. For the same compound, the “regression slope of response over the six menstrual cycles” value ([6]; p=0.615) was −0.90 mL/cycle, the “mean LPA score, change from baseline” value ([7]; 3-cycle study) was “Significant treatment-related reductions” and the “mean LSLA score, change from baseline” value ([7]; 3-cycle study) was “Significant treatment-related reductions”. For the same compound, the “LWH (MI measure 2)” value [7, 10] was “significantly reduced”, the “subjects' assessments of MBL (MI item 1)” value [7, 10] was “significantly reduced” and the proportion of responders ([7]; 3.9 g/day, first menstrual cycle, reduction in MBL and meaningful improvement (MI 6c)) was 71.0%. The “difference between the LSM of predose Day 6 and 7” value [8] was “less than 2%”, the “largest difference in predose plasma concentrations, LSM of predose Day 5 compared to Day 6 and 7” value [8] was “less than 10%” and the “therapeutic antifibrinolytic range (therapeutic window)” value ([9]; Cyklokapron NDA 19-280) was 5 to 15 µg/mL. For the same compound, the “dose excreted unchanged in the urine” value ([9]; within 2-3 hours) was 45-55%, the “dose excreted unchanged in the urine” value ([9]; within 24 hours) was 90% and the “dose excreted unchanged in the urine” value ([9]; within one hour) was 30%. The urinary recovery ([9]; Pilbrant, et al.) was “exceeded 95 % of the dose”, the gamma elimination half-life ([9]; after IV administration) was “approximately 7 hours” and the “bound to plasma proteins” value ([9]; at therapeutic plasma concentrations of approximately 5-15 mg/L) was “approximately 3%”. For the same compound, the beta elimination half-life ([9]; in vivo) was 2 h, the “excreted unchanged drug in the urine” value ([9]; in vivo) was “more than 95%” and the “typical therapeutic plasma concentrations” value ([9]; in vivo) was 5 to 15 mg/L. For the same compound, the “administered dose excreted unchanged in the urine” value ([9]; oral 250 or 500 mg, healthy adults, within 24 hours) was 40-70%.
